Measurements: patent US5411965A, “Use of delta opioid receptor antagonists to treat cocaine abuse” (Arizona Board of Regents, priority 1993, dated 1995)
“Also recorded” adds a separate entry of the source.

Experiments:
[1] = assay type: in vivo, rats
From the text: When rats are fixed with chronically indwelling bipolar electrodes for electrical stimulation of the medial forebrain bundle, they will press levers for brief durations of stimulation. The higher the intensity of stimulation, the greater the pressing. […] These relationships plus extant theory provide the rationale for using pressing for brain stimulation as a means of assessing the reinforcing effects of drugs and assessing which drugs might affect another drug's reinforcing effects.
The particulars of the procedures used herein are briefly summarized. Further information is in Reid (cited above) and Reid et al. (Life Sciences, 52, PL67-71 (1993)). Rats were fixed with chronically indwelling bipolar electrodes. Using standard stereotaxic methods, which includes full anesthesia, the tips of the electrode were aimed to stimulate the medial forebrain bundle as it traverses the lateral hypothalamus. With the skull held in a stereotaxic instrument so that a plane between bregma and lamba was perpendicular to the shaft of the electrode, the following stereotaxic coordinates were used: 3.5 mm posterior to brema, 1.6 mm lateral to the midline, and 8.6 mm below the surface of the skull.
The apparatus of these tests was a Skinner box (24×30 ×38 cm) equipped with a lever (2.5×2 cm). Each box was fixed with electrical leads and a slip-ring apparatus that allowed the rat to be connected to the electrical stimulator for intracranial stimulation, but allowed the rat to move freely in the box.
Upon full recovery from surgery, rats were trained to press a lever in the Skinner box for electrial stimulation of the brain. The electrical stimulation was 60 Hz sine waves of 0.3 sec. The maximum intensity used was of 50 microAmps. Each lever press delivered one 0.3-sec of brain stimulation.
Just after rats learned to press the lever, the intensity of the brain stimulation was varied. Three intensities were chosen. The lowest intensity was one that was barely sufficient to sustain lever pressing. The highest intensity sustained high rates of pressing, but not the highest rates that a rat can achieve. The medium intensity was about midway between the lowest and the highest. Once a set of intensities were established for each rat, those intensities remained fixed throughout the balance of testing. […] Each rat was under a daily regimen. They were allowed to press for each of three intensities of brain stimulation for 10 minutes. […] They were allowed to press the lever under this daily regimen under level-pressing rates became stable. Then, drugs (or placebos) were administered.
The methods of Example 5 were nearly the same as those of Example 4. Rats were fixed, using standard procedures, with chronically indwelling electrodes for stimulation of the medial forebrain bundle. Subsequent to recovery from surgery, they were trained to press for brain stimulation. After each learned to press, they were put on a daily regimen. That daily regimen involved pressing for 5 min at a high intensity of brain stimulation, followed by 5-minute sessions with medium, low, low, medium and then high intensity. Intensities were set for each rat so that pressing rate for the low intensity was rather slow (the low intensity being near lower threshold for maintaining pressing), pressing for the high intensity was at a high rate, and pressing for the medium intensity was between the rate for low and high intensity. Pressing at each intensity was averaged for an index of rat's responsiveness at that intensity.

mu opioid receptor = conditions: agonist morphine in GPI; antagonist 100 or 200 nM, 15 min; read-out: Ke; cited from earlier work
kappa opioid receptor = conditions: agonist ethylketazocine in GPI; antagonist 100 or 200 nM, 15 min; read-out: Ke, EK; cited from earlier work
delta opioid receptor = delta opioid receptor (Mus musculus, UniProt P32300); assay: Antagonism of DADLE in the mouse vas deferens (MVD) preparation; assay type: cell-based; conditions: in words
Chain of delta opioid receptor (P32300 whole entry): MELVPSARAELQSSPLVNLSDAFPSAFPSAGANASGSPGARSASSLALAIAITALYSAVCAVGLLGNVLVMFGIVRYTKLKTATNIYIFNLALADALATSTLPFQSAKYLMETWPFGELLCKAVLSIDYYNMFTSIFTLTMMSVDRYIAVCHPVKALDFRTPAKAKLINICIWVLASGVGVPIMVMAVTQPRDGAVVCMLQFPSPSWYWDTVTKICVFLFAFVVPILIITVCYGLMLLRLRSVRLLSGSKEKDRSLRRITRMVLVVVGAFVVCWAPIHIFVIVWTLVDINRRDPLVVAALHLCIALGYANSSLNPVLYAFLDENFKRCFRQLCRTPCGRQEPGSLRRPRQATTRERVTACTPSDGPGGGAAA
Procedure: Furthermore, the MVD responds selectively to delta opioids.
(§1) 2. Mouse Vas Deferens (MVD). […] The organ bath was maintained at 37° C.

[2] = system: mouse vas deferens (MVD) and guinea pig ileum (GPI); assay: Agonist activity in MVD and GPI preparations; assay type: cell-based; conditions: in words
Procedure: 1. Guinea Pig Ileal Longitudinal Muscle (GPI). Ilea from guinea pigs were taken approximately 10 cm from the ileocaecal junction, and a strip of longitudinal muscle with the myenteric plexus attached was prepared by method of Rang et al., Brit. J. Pharmacol., 22, 356 (1964), the disclosure of which is incorporated by reference herein. A 1 cm portion of this strip was then mounted between two platinum electrodes placed in a 10 ml organ bath and connected to an isometric transducer. Contractions were recorded on a polygraph. […] The organ bath was maintained at 36°-37° C. The longitudinal muscle strip was allowed to equilibrate with continuous stimulation for a minimum of 90 min.
as §1

[3] = cited from earlier work

| Structure (SMILES) | Kb (mu opioid receptor) [nM] | Kb (kappa opioid receptor) [nM] | further results |
| --- | --- | --- | --- |
| CC(N)Cc1ccccc1 (centres unmarked) [Amphetamine, phenylisopropylamine, reference compound] |  |  | pressing for brain stimulation, amphetamine alone ([1]; rat, in vivo): produced an increment in pressing; also recorded: produced increased pressing compared to pressing under the influence of placebo |
| O=C1C(=Cc2ccccc2)C[C@@]2(O)[C@H]3Cc4ccc(O)c5c4[C@@]2(CCN3CC2CC2)[C@H]1O5 [BNTX, 7-benzylidenenaltrexone] |  |  | pressing for brain stimulation, BNTX plus cocaine ([1]; rat, in vivo): reduced cocaine's (5 mg/kg) facilitation of pressing for rewarding brain stimulation in a fashion similar to the reduction observed for NTI; also recorded: extraordinarily effective in blocking cocaine's salient effects |
| Cn1c2c(c3ccccc31)C[C@@]1(O)[C@H]3Cc4ccc(O)c5c4[C@@]1(CCN3CC1CC1)[C@H]2O5 [Compound 2] | 12.5 | 22.2 |  |
| Oc1ccc2c3c1O[C@H]1c4[nH]c5ccc(F)cc5c4C[C@@]4(O)[C@@H](C2)N(CC2CC2)CC[C@]314 [Compound 3] | 61.7 | 46.2 |  |
| COc1ccc2[nH]c3c(c2c1)C[C@@]1(O)[C@H]2Cc4ccc(O)c5c4[C@@]1(CCN2CC1CC1)[C@H]3O5 [Compound 4] | 63 | 12.6 |  |
| Cc1ccc2[nH]c3c(c2c1)C[C@@]1(O)[C@H]2Cc4ccc(O)c5c4[C@@]1(CCN2CC1CC1)[C@H]3O5 [Compound 5] | > 160 | > 250 |  |
| O=[N+]([O-])c1ccc2[nH]c3c(c2c1)C[C@@]1(O)[C@H]2Cc4ccc(O)c5c4[C@@]1(CCN2CC1CC1)[C@H]3O5 [Compound 6] | 92 | ≥ 200 |  |
| CN1CC[C@]23c4c5ccc(O)c4O[C@H]2c2[nH]c4ccccc4c2C[C@@]3(O)[C@H]1C5 [Compound 7] |  |  | antagonism of the effect of the delta agonist DADLE (delta opioid receptor): inactive; agonist activity [2]: exhibited partial agonist activity |
| Oc1ccc2c3c1O[C@H]1c4oc5ccccc5c4C[C@@]4(O)[C@@H](C2)N(CC2CC2)CC[C@]314 [Compound 8, 17-(cyclopropylmethyl)-6,7-dehydro-3,14β-dihydroxy-4,5α-epoxy-6,7-2',3'-benzo[b]furanomorphinan] | 30.8 | 50.8 | delta antagonist potency and selectivity (delta opioid receptor): less potent and less selective than 1 as a delta antagonist, nevertheless retains substantial delta antagonist activity |
| Oc1ccc2[nH]c3c(c2c1)C[C@@]1(O)[C@H]2Cc4ccc(O)c5c4[C@@]1(CCN2CC1CC1)[C@H]3O5 [Compound 9] | 27.2 | 68.5 |  |
| Oc1ccc2c3c1O[C@H]1c4[nH]c5cccc(F)c5c4C[C@@]4(O)[C@@H](C2)N(CC2CC2)CC[C@]314 [Compound 10] | > 125 | > 170 |  |
| Oc1ccc2c3c1O[C@H]1c4[nH]c5c(F)cccc5c4C[C@@]4(O)[C@@H](C2)N(CC2CC2)CC[C@]314 [Compound 11] | 5.3 | > 330 |  |
| Cc1cccc2c3c([nH]c12)[C@@H]1Oc2c(O)ccc4c2[C@@]12CCN(CC1CC1)[C@H](C4)[C@]2(O)C3 [Compound 13] | 19.1 | > 330 |  |
| COc1cccc2c3c([nH]c12)[C@@H]1Oc2c(O)ccc4c2[C@@]12CCN(CC1CC1)[C@H](C4)[C@]2(O)C3 [Compound 14] | 35 |  |  |
| Oc1ccc2c3c1O[C@H]1c4nc5ccccc5nc4C[C@@]4(O)[C@@H](C2)N(CC2CC2)CC[C@]314 [Compound 16] | 6.1 | 13.4 | delta antagonist potency and selectivity (delta opioid receptor): A similar relationship was observed |
| Oc1ccc2c3c1O[C@H]1c4nc5ccccc5cc4C[C@@]4(O)[C@@H](C2)N(CC2CC2)CC[C@]314 [Compound 17] | 11.3 | 16.3 | delta antagonist potency and selectivity (delta opioid receptor): A similar relationship was observed |
| CNC(C)Cc1ccc2c(c1)OCO2 (centres unmarked) [MDMA, N-monomethyl-3,4-methylenedioxyphenylisopropylamine, reference compound] |  |  | mean presses at High intensity, MDMA plus Placebo ([1]; High intensity of intracranial stimulation, six rats): 922 presses per ten minutes; mean presses at Low intensity, MDMA plus Placebo ([1]; Low intensity of intracranial stimulation, six rats): 288 presses per ten minutes; mean presses at Medium intensity, MDMA plus Placebo ([1]; Medium intensity of intracranial stimulation, six rats): 563 presses per ten minutes; pressing for brain stimulation, MDMA alone ([1]; in words): increased pressing; average increase in pressing, MDMA ([1]; low intensity, factor): four times; conditioned place preference ([3]; drug alone, literature): produces a conditioned place preference among rats |
| O=C1CC[C@@]2(O)[C@H]3Cc4ccc(O)c5c4[C@@]2(CCN3CC2CC2)[C@H]1O5 [naltrexone] |  |  | conditioned place aversion ([3]; given alone, literature): condition place aversions; effect on MDMA's conditioned place preference ([3]; rat, in vivo): attenuated but not blocked; effect on cocaine's conditioned place preference ([3]; rat, in vivo): attenuate cocaine's reinforcing properties |
